Values of other authors as cited in patent publication EP0848611B1, “TACRINE PATCH” (HEXAL AG, priority 1995, dated 1997).

Key:
[1] = in vivo

## Nc1c2c(nc3ccccc13)CCCC2 [Tacrin, 1,2,3,4-Tetrahydro-9-acridinamin]
[1]; human
  Bioverfügbarkeit: 10-30%
  Halbwertszeit: 1,5-3,5 h
[1]
  therapeutischer Blutspiegel: 5 to 70 ng/mL
patients
  Anstieg der ALT-Werte (Alaninaminotransferase): ≤ 20 fachen der oberen normalen Grenze
Share of patients
  hepatotoxischer Effekt tritt auf: etwa der Hälfte der Patienten
